Reference: patent publication US9988379B2, “GPR40 receptor agonist, methods of preparing the same, and pharmaceutical compositions containing the same as an active agent” (LG CHEM, LTD., priority 2012, dated 2018)

Biological target: T1, human GPR40 (Homo sapiens, UniProt O14842)
T1 construct: expressed in transfected cells; host or cells: CHO-K1
Assay: Induction of Ca2+ (calcium flux assay) using human GPR40 expression cell line
Type: cell-based
Conditions: read-out: EC0.5
Method in brief: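 CHO-K1 cells stably transfected with human GPR40, plated 24 h, loaded 1 h at 37° C with Calcium 5 dye in HBSS/HEPES pH 7.4. Intracellular calcium change after compound addition read on FlexStation; concentration–response of relative activity used to derive EC0.5.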

T1 sequence (O14842 whole entry): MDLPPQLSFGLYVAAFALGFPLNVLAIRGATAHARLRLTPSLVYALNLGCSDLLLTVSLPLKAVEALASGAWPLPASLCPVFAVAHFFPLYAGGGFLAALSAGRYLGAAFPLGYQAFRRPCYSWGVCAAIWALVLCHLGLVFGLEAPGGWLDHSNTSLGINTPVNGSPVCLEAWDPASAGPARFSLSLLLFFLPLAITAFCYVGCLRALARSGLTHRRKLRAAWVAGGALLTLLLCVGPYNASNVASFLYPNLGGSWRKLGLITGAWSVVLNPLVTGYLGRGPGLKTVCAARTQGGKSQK

Row | Compound | EC50 [nM]
1 | CC#C[C@@H](CC(=O)O)c1ccc(OCc2ccc3cnn(CC(C)C)c3c2C)cc1 [Example 211, (S)-3-[4-(1-isobutyl-7-methyl-1H-indazol-6-ylmethoxy)-phenyl]-hex-4-ynoic acid] | 4
2 | O=C(O)C[C@@H](c1ccc(OCc2ccc3cnn(CC4CCCC4)c3c2)cc1)c1ccon1 [Example 103, (S)-3-[4-(1-cyclopentylmethyl-1H-indazol-6-ylmethoxy)-phenyl]-3-isoxazol-3-yl-propanoic acid] | 10
3 | CC#C[C@@H](CC(=O)O)c1ccc(OCc2ccc3ccn(Cc4ccc(Cl)nc4)c3c2C)cc1 [Example 46, (S)-3-{4-[1-(6-chloro-pyridin-3-ylmethyl)-7-methyl-1H-indol-6-ylmethoxy]-phenyl}-hex-4-ynoic acid] | 1 to 50
4 | Cc1c(COc2ccc(CCC(=O)O)cc2)ccc2ccn(-c3ccc(F)cc3)c12 [Example 14, 3-{4-[1-(4-fluoro-phenyl)-7-methyl-1H-indol-6-ylmethoxy]-phenyl}-propanoic acid] | 30
5 | CC#C[C@@H](CC(=O)O)c1ccc(OCc2ccc3c(ccn3Cc3ccccc3)c2)cc1 [Example 123, (S)-3-[4-(1-benzyl-1H-indol-5-ylmethoxy)-phenyl]-hex-4-ynoic acid] | 1 to 50
6 | CC#C[C@@H](CC(=O)O)c1ccc(OCc2ccc3cnn(C4CCCC4)c3c2)cc1 [Example 172, (S)-3-[4-(1-cyclopentyl-1H-indazol-6-ylmethoxy)-phenyl]-hex-4-ynoic acid] | 1 to 50
7 | CC#C[C@@H](CC(=O)O)c1ccc(OCc2ccc3ccn(Cc4cnn(C)c4)c3c2C)cc1 [Example 63, (S)-3-{4-[7-methyl-1-(1-methyl-1H-pyrazol-4-ylmethyl)-1H-indol-6-ylmethoxy)-phenyl]-hex-4-ynoic acid] | 1 to 50
8 | Cc1cc(F)ccc1-n1ccc2cc(F)c(COc3ccc(CCC(=O)O)cc3)cc21 [Example 23, 3-{4-[5-fluoro-1-(4-fluoro-2-methyl-phenyl)-1H-indol-6-ylmethoxy)-phenyl]-propanoic acid] | 4
9 | O=C(O)CCc1ccc(OCc2cccc3c2ccn3Cc2ccccc2)cc1F [Example 54, 3-[4-(1-benzyl-1H-indol-4-ylmethoxy)-2-fluoro-phenyl]-propanoic acid] | 50 to 500
10 | O=C(O)CC1CCOc2cc(OCc3ccc4c(cnn4CCc4ccccc4)c3)ccc21 (stereo not shown) [Example 135, [7-(1-phenethyl-1H-indazol-5-ylmethoxy)-chroman-4-yl]-acetic acid] | 200
11 | CC#C[C@@H](CC(=O)O)c1ccc(OCc2cccc3c2c(F)nn3CC2CC2)cc1 [Example 200, (S)-3-[4-(1-cyclopropylmethyl-3-fluoro-1H-indazol-4-ylmethoxy)-phenyl]-hex-4-ynoic acid] | 9
12 | CC#C[C@@H](CC(=O)O)c1ccc(OCc2ccc3c(CN4CCOCC4)nn(CC(C)C)c3c2Cl)cc1 [Example 216, (S)-3-[4-(7-chloro-1-isobutyl-3-morpholin-4-ylmethyl-1H-indazol-6-ylmethoxy)-phenyl]-hex-4-ynoic acid] | 6
13 | Cc1cc(COc2ccc3c(c2)OCC3CC(=O)O)cc2cnn(Cc3ccccc3)c12 (stereo not shown) [Example 128, [6-(1-benzyl-7-methyl-1H-indazol-5-ylmethoxy)-2,3-dihydro-benzofuran-3-yl]-acetic acid] | 50 to 500
14 | O=C(O)CC1CCOc2cc(OCc3ccc4c(cnn4CC4CCCCC4)c3)ccc21 (stereo not shown) [Example 139, [7-(1-cyclohexyl methyl-1H-indazol-5-ylmethoxy)-chroman-4-yl]-acetic acid] | 300
15 | Cn1ncc2ccc(COc3ccc([C@H](CC(=O)O)c4ccon4)cc3)cc21 [Example 101, (S)-3-isoxazol-3-yl-3-[4-(1-methyl-1H-indazol-6-ylmethoxy)-phenyl]-propanoic acid] | 90
16 | CC#C[C@@H](CC(=O)O)c1ccc(OCc2ccc3ccn(Cc4cccc(F)c4)c3c2C)cc1 [Example 42, (S)-3-{4-[1-(3-fluoro-benzyl)-7-methyl-1H-indol-6-ylmethoxy]-phenyl}-hex-4-ynoic acid] | 50 to 500

Row | Compound | EC50 [nM]
17 | O=C(O)CC1CCOc2cc(OCc3ccc4c(cnn4Cc4ccccc4)c3)ccc21 (stereo not shown) [Example 120, [7-(1-benzyl-1H-indazol-5-ylmethoxy)-chroman-4-yl]-acetic acid] | 40
18 | CC#C[C@@H](CC(=O)O)c1ccc(OCc2cccc3nn(Cc4ccccc4)cc23)cc1 [Example 47, (S)-3-[4-(2-benzyl-2H-indazol-4-ylmethoxy)-phenyl]-hex-4-ynoic acid] | 1 to 50
19 | CC#C[C@@H](CC(=O)O)c1ccc(OCc2ccc3c(cnn3CCCOC)c2)cc1 [Example 176, (S)-3-{4-[1-(3-methoxy-propyl)-1H-indazol-5-ylmethoxy]-phenyl}-hex-4-ynoic acid] | 40
20 | O=C(O)CCc1ccc(NCc2ccc3ccn(CC4CCCCC4)c3c2Cl)cc1 [Example 11, 3-{4-[(7-chloro-1-cyclohexylmethyl-1H-indol-6-ylmethyl)-amino]-phenyl}-propanoic acid] | 400
21 | CC#C[C@@H](CC(=O)O)c1ccc(OCc2ccc3nn(Cc4ccccc4)cc3c2)cc1 [Example 112, (S)-3-[4-(2-benzyl-2H-indazol-5-ylmethoxy)-phenyl]-hex-4-ynoic acid] | 1 to 50
22 | CC#C[C@@H](CC(=O)O)c1ccc(OCc2ccc3ccn(Cc4ccccc4)c3c2Cl)cc1 [Example 40, (S)-3-[4-(1-benzyl-7-chloro-1H-indol-6-ylmethoxy)-phenyl]-hex-4-ynoic acid] | 60
23 | O=C(O)CCc1ccc(OCc2ccc3cnn(Cc4ccccc4)c3c2)cc1F [Example 106, 3-[4-(1-benzyl-1H-indazol-6-ylmethoxy)-2-fluoro-phenyl]-propanoic acid] | 1 to 50
24 | CC#C[C@@H](CC(=O)O)c1ccc(OCc2ccc3ccn(Cc4cccc(CS(C)(=O)=O)c4)c3c2C)cc1 [Example 35, (S)-3-{4-[1-(3-methanesulfonylmethyl-benzyl)-7-methyl-1H-indol-6-ylmethoxy]-phenyl}-hex-4-ynoic acid] | 10
25 | O=C(O)CCc1ccc(NCc2ccc3ccn(CCc4ccccc4)c3c2)cc1 [Example 4, 3-{4-[(1-phenethyl-1H-indol-6-ylmethyl)-amino]-phenyl}-propanoic acid] | 50
26 | CC#C[C@@H](CC(=O)O)c1ccc(OCc2ccc3c(CN4CCOCC4)nn(CC(C)C)c3c2C)cc1 [Example 215, (S)-3-[4-(1-isobutyl-7-methyl-3-morpholin-4-ylmethyl-1H-indazol-6-ylmethoxy)-phenyl]-hex-4-ynoic acid] | 10
27 | CC#C[C@@H](CC(=O)O)c1ccc(OCc2ccc3cnn(Cc4cnn(C)c4)c3c2)cc1 [Example 82, (S)-3-{4-[1-(1-methyl-1H-pyrazol-4-ylmethyl)-1H-indazol-6-ylmethoxy]-phenyl}-hex-4-ynoic acid] | 50 to 500
28 | CC#C[C@@H](CC(=O)O)c1ccc(OCc2ccc3ccn(Cc4ccccc4F)c3c2C)cc1 [Example 37, (S)-3-{4-[1-(2-fluoro-benzyl)-7-methyl-1H-indol-6-ylmethoxy]-phenyl}-hex-4-ynoic acid] | 40
29 | CC#C[C@@H](CC(=O)O)c1ccc(OCc2ccc3ccn(Cc4ccccc4Cl)c3c2C)cc1 [Example 38, (S)-3-{4-[1-(2-chloro-benzyl)-7-methyl-1H-indol-6-ylmethoxy]-phenyl}-hex-4-ynoic acid] | 90
30 | CC#C[C@@H](CC(=O)O)c1ccc(OCc2cccc3nn(Cc4cnc(C)cn4)cc23)cc1 [Example 78, (S)-3-{4-[2-(5-methyl-pyrazin-2-ylmethyl)-2H-indazol-4-ylmethoxy]-phenyl}-hex-4-ynoic acid] | 50 to 500
31 | CC#C[C@@H](CC(=O)O)c1ccc(OCc2ccc3c(CN4CC[C@H](F)C4)nn(CC(C)C)c3c2C)cc1 [Example 229, (S)-3-{4-[3-((S)-3-fluoro-pyrrolidin-1-ylmethyl)-1-isobutyl-7-methyl-1H-indazol-6-ylmethoxy]-phenyl}-hex-4-ynoic acid] | 35
